Measurements from US8187373B2, “Printing inks for offset and/or high printing containing NIR absorbers and NIR absorbers soluble in offset and/or high printing inks” (BASF SE, priority 2004, dated 2012).

Experiments:
[1] = Extinction of a thin layer of printing varnish containing NIR absorber (absorption spectrum 400-1000 nm); type: physicochemical; conditions: 1.0% by weight NIR absorber
Experimental: Two conventional varnishes for the preparation of offset printing inks were used for the test. Varnishes are prepared formulations comprising binder and solvent, but as yet without colorant. In this way, it is possible to study the behavior of the NIR absorber also spectroscopically without interference by the colorant.
A varnish for the preparation of heatset inks comprising about 45% by weight of a low-aromatics mineral oil (boiling range from 240 to 270° C.), about 45% by weight of a rosin-modified phenol resin and about 10% by weight of an alkyd resin was used, as well as a varnish for the preparation of sheet-fed offset inks comprising about 45% by weight of a low-aromatics mineral oil (boiling range from 260 to 290° C.), about 45% by weight of a rosin-modified phenol resin and about 10% by weight of linseed oil.
Furthermore, a thin layer of above liquids was produced and was investigated spectroscopically. For this purpose, the above liquids were diluted 1:5 with dichloromethane, and the resulting solution was applied to a microscope slide by means of a knife coater so that, after evaporation of the dichloromethane, a layer of about 2 μm thick remained. An absorption spectrum (400-1000 nm) of this layer was then recorded after 2 hours.

[2] = Testing of the NIR absorbers in yellow heatset offset printing ink, printed on paper; type: physicochemical; conditions: 0.5% by weight in commercial yellow heatset offset printing ink
Experimental: In each case 0.5% by weight of the absorber A1 or A2 not according to the invention was added to a commercial yellow heatset offset printing ink, and the mixtures were thoroughly stirred.
Samples of the inks obtained were printed on paper.
The procedure was as in the comparative example, except that in each case 0.5% by weight of the novel NIR absorber B2 or B4 was used.

Row | extinction E at 810 nm [1] | dissolution of NIR absorber in the offset ink [2] | Structure (SMILES)
1 | < 0.01 | did not dissolve | CCN1/C(=C/C=C2\CCC(/C=C/C3=[N+](CC)c4ccccc4C3(C)C)=C2Cl)C(C)(C)c2ccccc21 [Compound A2]
2 | 0.83 | dissolved completely | CCN1/C(=C/C=C2\CCC(/C=C/C3=[N+](CC)c4ccccc4C3(C)C)=C2Cl)C(C)(C)c2ccccc21 [Compound B4]
